“Also recorded” adds a separate entry of the source. Where no end group is shown, it is not given here.
Tests used:
[1] = tested on: wildtype and ankyrin-B (+/−) mice; experiment: Heart rate by ECG radiotelemetry in conscious mice after drug injection; format: in vivo, mouse; conditions: for heart rate response to endothelin-1: 300 ng/kg
Method: (§1) EKG recordings. EKG recordings were obtained using a radiotelemetry apparatus (DSI). Transmitters were implanted and the mice recovered for 5 days prior to recordings. EKG traces were analyzed using Data Quest analysis software 2.1 (DSI). P wave duration, PR interval, RR interval, QRS interval and QT interval were all calculated according to established methods. The rate corrected QT interval (QTc) was calculated from the relationship QTc=QT/(RR)^1/2 Following a 15-hour fast, blood glucose levels were measured (OneTouch Ultra; Lifescan) before and up to 120 min after an intraperitoneal injection of either PBS, glucose (2 g/kg) or insulin (5 units/kg; Eli Lilly) (Ludwig et al, J. Clin. Invest. 107:379–386 (2001)).
To test ankyrin-B heterozygous mice for potential defects in Gαq signaling, ECG radiotransmitter implants were implanted in the abdomen of ankyrin-B (+/−) mice as well as wildtype littermate controls. These probes allow the recording of real time ECG and thus heart rate recordings in conscious, non-anethestized mice. 24 hour recordings of wildtype mice compared to heterozygote animals show overall bradycardia in the heterozygote (FIG. 9).

[2] = tested on: AnkB+/− and +/+ mice
From the text: Sudden cardiac death in humans with the E1425G mutation occurred secondary to physical exertion and emotional stress (FIG. 28)3. An attempt was made to mimic these circumstances in mice with exercise followed by injection with epinephrine.

[3] = tested on: adult AnkB+/− and control ventricular cardiomyocytes; experiment: Action potential recordings in isolated adult ventricular cardiomyocytes with isoproterenol; format: cell-based, mouse; conditions: for extrasystoles in action potentials after acute isoproterenol: isoproterenol (1 μM); for myocytes with DADs and EADs: isoproterenol
Method: Patch clamp methods. AnkB+/− and +/+ animals (1–3 months of age) were sacrificed by IP injection of pentobarbital sodium (100 mg/kg). Single myocytes were isolated (Santana et al, J. Physiol. 503:21 (1997)). Axopatch-200A or -200B amplifier (Axon Instruments) was used to measure membrane currents (Santana et al, J. Physiol. 503:21(1997), Santana et al, Science 279:1027 (1998)). Patch pipette (1–3 MOhm) solution (mM): CsCl (130); NaCl (10); MgATP (5); Hepes (10), MgCl2 (1) PH 7.2 (with CsOH). Superfusion solution 1: (mM) NaCl (140), KCl (5) MgCl2 (0.5), CaCl2 (1.8), NaH2PO4 (0.33), glucose (5.5) and HEPES (5); pH 7.4 at 35–37° C. Solution 2 was same as solution 1 but with CsCl substituted for KCl. After conversion to whole cell, voltage clamp in solution (1), solution (2) was used to measure ICa. Test depolarizations followed four 50 ms depolarizations to 0 mV at 1 Hz. A 500 ms ramp-depolarization from […] to 40 mV was followed by a 50 ms period at 40 mV before test depolarizations.
AP recordings. Myocytes were superfused with Solution 1. β adrenergic stimulation of cells produced by the addition of 1 μM isoproterenol to solution 1. Pipette filling solution as above, except KCl was substituted for CsCl (pH 7.2 with KOH). Axopatch 200A was used in current clamp mode to record AP. Current injections triggered AP at constant rate (1 Hz, 5 Hz). All experiments were performed at 37° C.

[4] = tested on: Na/K ATPase; experiment: [3H]ouabain binding to adult cardiac microsomes; design: species or system mouse
From the text: Na/K ATPase, Na/Ca exchanger (NCX) and IP3R are candidate ankyrin-binding proteins based on biochemical data (Bennett et al, Physiol. Rev. 81:1353 (2001)) that are localized at T-tubules (Frank et al, in The Myocardium (ed. Langer, G A) 1–32 (Academic Press, San Diego, Calif., 1997)). Ankyrin-B co-immunoprecipitates with NCX1, α1 and α2 ATPase, and IP3R from extracts of heart tissue (FIG. 30B), but not with other cardiomyocyte proteins (including DHPR, SERCA2, and calsequestrin). Levels of IP3R (pan IP3R), α1 and α2 Na/K ATPase subunits, and NCX in isolated adult cardiomyocytes are reduced by 15–33% in AnkB+/− cardiomyocytes by immunoblots (FIG. 30C). Measurements of binding of [^3H] […] In contrast, by quantitative western blot analysis, protein levels of ER/SR components (SERCA2, calreticulin, calsequestrin), K+ channels or associated subunits (KCNQ1/KvLQT1, ERG1, MinK/IsK, Kir2.1/IRK1, Kir2.3/IRK3), RyR2, plasma membrane Ca^+2 channels (DHPR, PMCA2), and structural proteins (α-actinin, dystrophin) are unaffected (FIG. 30C).

[5] = tested on: (+/+) and AnkB (+/−) mice; experiment: Insulin-tolerance test, blood glucose; format: in vivo, mouse; conditions: 5 units/kg intraperitoneal, 120 min
Method: as §1

[6] = tested on: IP3R; experiment: [3H]IP3 binding assay and Scatchard analysis, cardiac muscle microsomes; design: species or system mouse; conditions: for Kd: n=5
Method: IP3 Binding Experiments. Cardiac membranes were prepared and labeled with increasing concentrations (5–40 nM) of [^3H] IP3 (Amersham) essentially as described (Perez et al, J. Biol. Chem. 272:23961 1997)). Assays were performed in triplicate, and at each IP3 concentration, non-specific binding was assessed in the presence of 1 μM unlabeled IP3 (ICN).

For `CC(C)NCC(O)COc1cccc2ccccc12` (stereo not drawn) [propanolol], the “heart rate response to propanolol” value ([1]; wildtype and ankyrin-B heterozygote mice) was “typical decreases in heart rate which were not significantly different”.

With `CNC[C@H](O)c1ccc(O)c(O)c1` [epinephrine] the “mice that became unresponsive or died” value ([2]; +/+ mice) was 0/6, the “mice that died following exercise combined with epinephrine” value ([2]; AnkB+/− mice) was 8/14 and the “time to polymorphic ventricular arrhythmias after EPI” value ([2]; AnkB+/− mouse, exercise and epinephrine) was roughly 17 min.

`CNC[C@H](O)c1cccc(O)c1` [phenylephrine] was tested, and the “heart rate response to phenylephrine” value ([1]; ankyrin-B (+/−) mice, 3 mg/kg) was “significant decreased heart rate sensitivity; also recorded: does not reach the same minimum levels as the wildtype”, the “maximal decrease in heart rate after phenylephrine during beta blockade” value ([1]; ankyrin-B heterozygous mice, propanolol injected prior to phenylephrine) was ~50 % of the wildtype response and the “heart rate response to phenylephrine” value ([1]; wildtype mice, 3 mg/kg intraperitoneal) was “rapid decrease in heart rate”.

With `CC(C)NCC(O)c1ccc(O)c(O)c1` (stereo not drawn) [isoproterenol] the “extrasystoles in action potentials after acute isoproterenol” value ([3]; AnkB+/− cardiomyocytes) was “developed spontaneous extrasystoles at both 1 and 5 Hz”, the “myocytes with DADs and EADs” value ([3]; AnkB+/− myocytes, 1 and 5 Hz) was 36% and the “extrasystoles in action potentials after acute isoproterenol” value ([3]; control cells) was “did not”. For the same compound, the “myocytes with DADs and EADs” value ([3]; control myocytes) was “no control myocytes” and the “heart rate response to isoproterenol” value ([1]; wildtype and ankyrin-B (+/−) mice, 50 mg/kg) was “responsed equally”.

`C[C@@H]1O[C@@H](O[C@H]2C[C@@H](O)[C@]3(CO)[C@H]4[C@H](O)C[C@]5(C)[C@@H](C6=CC(=O)OC6)CC[C@]5(O)[C@@H]4CC[C@]3(O)C2)[C@H](O)[C@H](O)[C@H]1O` [ouabain] was tested, and the “reduction in [3H]ouabain binding capacity” value ([4]; AnkB+/− heart vs +/+) was 16% and the “affinity for ligand, AnkB+/− vs +/+” value ([4]; adult cardiac microsomes) was “unchanged”.

“endothelin-1 (CSCSSLMDKECVYFCHLDIIW; ends and bridges not checked; cysteine pairing not given here; UniProt P05305 53-73, looked up) [signals via a Gαq-coupled receptor]” was tested, and the “heart rate response to endothelin-1” value ([1]; ankyrin-B (+/−) mice) was “significantly reduced; also recorded: does not reach the same levels as the wildtype” and the “heart rate response to endothelin-1” value ([1]; wildtype animals) was “significant decrease in heart rate”.

For insulin, the “blood glucose after insulin injection” value ([5]; (+/+) mice) was “decline following the insulin injection and return to near normal levels by the end of the 120 min period” and the “blood glucose after insulin injection” value ([5]; AnkB (+/−) mice) was “significant reduction in blood glucose levels”.

With `O=P(O)(O)O[C@@H]1[C@H](O)[C@H](O)[C@@H](OP(=O)(O)O)[C@H](OP(=O)(O)O)[C@H]1O` [IP3, inositol 1,4,5-triphosphate] the “Bmax, IP3 binding capacity” value ([6]; (+/+) cardiac muscle) was 0.083 pmol/mg, the Kd ([6]; (+/+) cardiac muscle) was 24 nM and the “Bmax, IP3 binding capacity” value ([6]; AnkB (+/−) cardiac muscle) was 0.056 pmol/mg. The Kd ([6]; AnkB (+/−) cardiac muscle) was 25 nM, the “reduction in IP3 binding capacity” value ([6]; AnkB (+/−) vs wildtype heart) was 33% and the “affinity for ligand, AnkB+/− vs +/+” value ([6]; adult cardiac microsomes) was “unchanged”.
